Assay results published in patent US12030877B2, “Prostaglandin E synthase inhibitors and methods for utilizing the same” (University of Kentucky Research Foundation, priority 2016, dated 2024).

biological target: T1, mPGES-1 Mouse enzyme (Mus musculus, UniProt Q9JM51); assay: mPGES-1 enzyme activity assay (PGE2 enzyme immunoassay), mouse enzyme; type: biochemical; details: IC50 against mPGES-1, Mouse enzyme, recombinant microsomal enzyme; means ± SD, triplicate
T1 construct: made in house; host or cells: FreeStyle 293-F cells, crude microsomal preparation
T1 sequence (Q9JM51 1-153): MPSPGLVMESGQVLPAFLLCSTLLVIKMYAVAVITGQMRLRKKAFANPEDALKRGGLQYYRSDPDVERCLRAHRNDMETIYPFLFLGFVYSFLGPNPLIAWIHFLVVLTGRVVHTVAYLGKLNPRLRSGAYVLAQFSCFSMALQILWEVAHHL
Procedure: (§1) Studies were conducted to characterize the inhibitory activity against recombinant mPGES-1 of the compounds synthesized in accordance with Examples 1-4, and disclosed herein.
(§2) Briefly, FreeStyle 293-F cells were cultured following manufacturer's manual in FreeStyle 293 expression medium on orbit rotate shaker in 8% CO2 incubator at 37° C. Cells were transfected with 1.5 μg/mL of mPGES-1/pcDNA3 construct using FreeStyle Max reagent at a cell density of 1×10^6 for 2 days. Transfected cells were collected, washed, and sonicated in TSES buffer (15 mM Tris-HCl, pH 8.0 plus 0.25 M sucrose, 0.1 mM EDTA and 1 mM DTT) on ice. The broken cells were first centrifuged at 12,500×g for 10 min. The supernatant was further centrifuged at 105,000×g for 1 hr at 4° C. The pellet was washed and homogenized in PBS buffer. The crude microsomal mPGES-1 preparation was aliquoted and stored at −80° C. The crude protein concentration was 8 mg/mL.
(§3) The enzyme activity assays were performed on ice in 1.5 ml microfuge tubes by using the expressed mPGES-1. The reaction mixture contained: 0.2 M Na2HPO4/NaH2PO4, pH 7.2, 10 μL; 0.1 M GSH, 2.5 μL; diluted microsomal enzyme (80 μg/mL), 1 μL; PGH2 (0.31 mM in DMF), 5 μL; 1 μL inhibitor; and H2O in a final reaction volume of 100 μL. PGH2 was stored in dry ice and used to initiate the reaction.
(§4) Compounds were incubated with the enzyme for 15 min at room temperature before the addition of cold PGH2 (1 μM final) to initiate the enzyme reaction. After 30 s, 10 μL of SnCl2 (40 mg/mL) in ethanol was added to stop the reaction. The nonenzymatic conversion of PGH2 to PGE2 was performed in the same buffer devoid of enzyme. The reaction mixture was placed on ice until PGE2 production was determined by the PGE2 enzyme immunoassay as described earlier. IC50 values of the inhibitors were calculated by using the GraphPad Prism 4.0 program. The results are set forth in the tables provided in Examples 7-10.

| Compound | IC50 |
| --- | --- |
| O=C1NC(=O)C(=Cc2ccc(OCCCC3CCCCC3)c([N+](=O)[O-])c2)C(=O)N1 [Compound I-32] | 0.428 ± 0.058 µM |
| COc1cc(C=C2C(=O)NC(=O)NC2=O)ccc1OCCCCC1CCCCC1 [Compound I-06] | 1.46 ± 0.209 µM |

same assay, conditions: compound at a concentration of 10 μM; read-out: % inhibition of the compound against mPGES-1, Mouse enzyme

| Compound | inhibition at 10 µM |
| --- | --- |
| O=C1NC(=O)C(=Cc2ccc(OCCCOc3ccc4ccccc4c3)c(Cl)c2)C(=O)N1 [Compound I-36] | 19% |
| O=C(O)CN1C(=O)/C(=C2\SC(=O)N(CCCCc3ccccc3)C2=O)c2ccccc21 [II-31] | 64% |

same assay, conditions: recombinant microsomal enzyme; means ± SD, triplicate; read-out: IC50 against mPGES-1, Mouse enzyme

| Compound | IC50 |
| --- | --- |
| CCCCCCCCCN1C(=O)/C(=C2\SC(=O)N(CC(=O)O)C2=O)c2ccccc21 [II-16] | 1.4 ± 0.217 µM |

biological target: T2, mPGES-1 (Homo sapiens, UniProt O14684); assay: mPGES-1 enzyme activity assay (PGE2 enzyme immunoassay), human enzyme; type: biochemical; design: made in house; host or cells: FreeStyle 293-F cells, crude microsomal preparation; details: IC50 against mPGES-1, Human enzyme, recombinant microsomal enzyme; means ± SD, triplicate
T2 sequence (O14684 1-152): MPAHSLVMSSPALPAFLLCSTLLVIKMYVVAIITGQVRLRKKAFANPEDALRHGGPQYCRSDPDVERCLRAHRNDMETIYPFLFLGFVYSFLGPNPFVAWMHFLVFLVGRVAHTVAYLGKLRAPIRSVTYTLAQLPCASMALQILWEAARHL
Procedure: as §1, §2, §3, §4

| Compound | IC50 |
| --- | --- |
| O=C1NC(=O)C(=Cc2ccc(OCCCOc3ccc4ccccc4c3)c(Cl)c2)C(=O)N1 [Compound I-36] | 0.365 ± 0.059 µM |
| O=C1NC(=O)C(=Cc2ccc(OCCCC3CCCCC3)c([N+](=O)[O-])c2)C(=O)N1 [Compound I-32] | 0.073 ± 0.012 µM |
| COc1cc(C=C2C(=O)NC(=O)NC2=O)ccc1OCCCCC1CCCCC1 [Compound I-06] | 0.121 ± 0.02 µM |
| O=C1NC(=O)C(=Cc2ccc(OCCCC3CCCCC3)c(Cl)c2)C(=O)N1 [Compound I-30] | 0.078 ± 0.013 µM |
| O=C1NC(=O)C(=Cc2ccc(OCCCCC3CCCCC3)c([N+](=O)[O-])c2)C(=O)N1 [Compound I-23] | 0.053 ± 0.014 µM |
| O=C1NC(=O)C(=Cc2ccc(OCCCCC3CCCCC3)c([N+](=O)[O-])c2)C(=O)N1 [Compound I-08] | 0.067 ± 0.02 µM |
| O=C1NC(=O)C(=Cc2ccc(OCCCC3CCCCC3)c(Br)c2)C(=O)N1 [Compound I-31] | 0.112 ± 0.013 µM |
| O=C1NC(=O)C(=Cc2ccc(OCCCCC3CCCCC3)c(Br)c2)C(=O)N1 [Compound I-03] | 0.045 ± 0.008 µM |
| O=C1NC(=O)C(=Cc2ccc(OCCCC3CCCCC3)c(Cl)c2)C(=O)N1 [Compound I-24] | 0.11 ± 0.021 µM |
| O=C1NC(=O)C(=Cc2ccc(OCCCC3CCCCC3)c(Br)c2)C(=O)N1 [Compound I-25] | 0.104 ± 0.025 µM |
| O=C1NC(=O)C(=Cc2ccc(OCCCCC3CCCCC3)c(Br)c2)C(=O)N1 [Compound I-22] | 0.02 ± 0.004 µM |

same assay, conditions: compound at a concentration of 10 μM; read-out: % inhibition of the compound against mPGES-1, Human enzyme

| Compound | inhibition at 10 µM |
| --- | --- |
| CCCCCCOc1ccc(-c2nn(-c3ccc(Cl)cc3)cc2/C=C(/C#N)C(=O)OCC)cc1 [VII-04] | 37% |
| CCCCCCCCOc1ccc(-c2nn(-c3ccc(Cl)cc3)cc2C=C2C(=O)N(C)C(=O)N(C)C2=O)cc1 [VI-22] | 6.8% |
| CCCCCCCCCCOc1ccc(-c2nn(-c3ccccc3)cc2C=C2C(=O)N(C)C(=O)N(C)C2=O)cc1 [VI-23] | 0% |
| CCCCOc1ccc(-c2nn(-c3ccc(Cl)cc3)cc2C=C(C#N)C#N)cc1 [VII-23] | 77% |
| CCCCOc1ccc(-c2nn(-c3ccccc3)cc2C=C(C#N)C#N)cc1 [VII-22] | 54% |
| CCCCCCCCCCOc1ccc(-c2nn(-c3ccccc3)cc2C=C(C#N)C#N)cc1 [VII-27] | 49% |
| CCCCCCCCCCOc1ccc(-c2nn(-c3ccc(Cl)cc3)cc2C=C(C#N)C#N)cc1 [VII-28] | 47% |
| CCOC(=O)/C(C#N)=C\c1cn(-c2ccc(Cl)cc2)nc1-c1ccc(OCC)cc1 [VII-03] | 24% |
| CCCCOc1ccc(-c2nn(-c3ccccc3)cc2C=C2C(=O)N(C)C(=O)N(C)C2=O)cc1 [VI-19] | 30% |
| CCCCCCCCCCOc1ccc(-c2nn(-c3ccc(Cl)cc3)cc2C=C2C(=O)N(C)C(=O)N(C)C2=O)cc1 [VI-24] | 0% |
| CCCCCCCCOc1ccc(-c2nn(-c3ccccc3)cc2C=C2C(=O)N(C)C(=O)N(C)C2=O)cc1 [VI-21] | 16% |
| CCCCCCCCOc1ccc(-c2nn(-c3ccc(Cl)cc3)cc2C=C(C#N)C#N)cc1 [VII-26] | 52% |
| CCCCOc1ccc(-c2nn(-c3ccc(Cl)cc3)cc2C=C2C(=O)N(C)C(=O)N(C)C2=O)cc1 [VI-20] | 29% |
| CCCCCCCCOc1ccc(-c2nn(-c3ccccc3)cc2C=C(C#N)C#N)cc1 [VII-25] | 55% |

same assay, conditions: recombinant microsomal enzyme; means ± SD, triplicate; read-out: IC50 against mPGES-1, Human enzyme

| Compound | IC50 |
| --- | --- |
| CCCCCCOc1c(Br)cc(/C=C(\C#N)C(=O)OCC)cc1OC [Compound V-12] | 0.998 ± 0.196 µM |
| CCCCCCCCCCCCCCCCCCOc1c(Br)cc(/C=C(\C#N)C(=O)OCC)cc1OC [Compound V-19] | 2.27 ± 0.35 µM |
| CCCCCCCCCN1C(=O)/C(=C2\SC(=O)N(CC(=O)O)C2=O)c2ccccc21 [II-16] | 0.199 ± 0.032 µM |
| O=C(O)CN1C(=O)/C(=C2\SC(=O)N(CCCCc3ccccc3)C2=O)c2ccccc21 [II-31] | 0.962 ± 0.159 µM |
| CCOc1ccc(-c2nn(-c3ccc(Cl)cc3)cc2/C=C2\SC(=O)NC2=O)cc1 [VII-05] | 1.59 ± 0.557 µM |
| CCCCCCCCCCOc1ccc(/C=C(\C#N)C(=O)OCC)cc1OC [Compound V-26] | 0.905 ± 0.177 µM |
| CCCCCCCCCCOc1ccc(/C=C(\C#N)C(N)=O)cc1OC [Compound V-28] | 4.37 ± 0.915 µM |
| CCCCCCCOc1ccc(/C=C(\C#N)C(=O)O)cc1OC [Compound V-34] | 0.531 ± 0.116 µM |
| O=C1NC(=O)/C(=C/c2cn(-c3ccccc3)nc2-c2ccccc2)S1 [VII-07] | 4.93 ± 1.16 µM |
| CCCCCCOc1ccc(-c2nn(-c3ccc(Cl)cc3)cc2/C=C2\SC(=S)NC2=O)cc1 [VII-09] | 1.73 ± 0.666 µM |
| CCCCCCOc1ccc(/C=C(\C#N)C(=O)OCC)cc1 [Compound V-08] | 5.24 ± 0.429 µM |
| CCCCCCCOc1c(Br)cc(/C=C(\C#N)C(=O)OCC)cc1OC [Compound V-14] | 1.01 ± 0.262 µM |
| CCCCCCOc1ccc(/C=C(\C#N)C(=O)OCC)cc1[N+](=O)[O-] [Compound V-01] | 8.74 ± 1.17 µM |
| CCOc1ccc(-c2nn(-c3ccc(Cl)cc3)cc2/C=C2\SC(=S)NC2=O)cc1 [VII-08] | 1.04 ± 0.293 µM |
| CCCCCCOc1ccc(/C=C(\C#N)C(=O)O)cc1OC [Compound V-25] | 0.242 ± 0.03 µM |
| CCCCCOc1ccc(/C=C/[N+](=O)[O-])cc1OC [Compound V-43] | 2.77 ± 0.577 µM |
| CCCCCCCOc1ccc(/C=C(\C#N)C(=O)OCC)cc1[N+](=O)[O-] [Compound V-02] | 4.82 ± 0.511 µM |
| CCCCCCOc1ccc(/C=C(\C#N)C(=O)OCC)cc1OC [Compound V-23] | 1.45 ± 0.192 µM |
| CCCCCCOc1ccc(-c2nn(-c3ccc(Cl)cc3)cc2/C=C2\SC(=O)NC2=O)cc1 [VII-06] | 1.39 ± 0.303 µM |
| CCCCCOc1ccc(/C=C(\C#N)C(=O)OCC)cc1 [Compound V-07] | 6.22 ± 0.502 µM |

| Compound | IC50 |
| --- | --- |
| CCCCCCCOc1ccc(/C=C(\C#N)C(=O)OCC)cc1 [Compound V-09] | 3.52 ± 0.471 µM |
| CCCCCOc1ccc(C=C(C#N)C#N)cc1OC [Compound V-42] | 0.439 ± 0.104 µM |
| CCCCCCCOc1ccc(/C=C(\C#N)C(=O)OCC)cc1OC [Compound V-32] | 4.28 ± 1.4 µM |
| CCCCOc1ccc(/C=C(\C#N)C(=O)O)cc1OC [Compound V-36] | 0.541 ± 0.082 µM |
| CCCCCCCCCOc1ccc(/C=C(\C#N)C(=O)OCC)cc1OC [Compound V-29] | 2.88 ± 0.687 µM |
| CCCCCCCCOc1c(Br)cc(/C=C(\C#N)C(=O)OCC)cc1OC [Compound V-17] | 1.87 ± 0.35 µM |
| COc1cc(C=C(C#N)C#N)ccc1OCC1CCCCC1 [Compound V-39] | 1.45 ± 0.152 µM |
| CCCCCCOc1ccc(C=C(C#N)C#N)cc1OC [Compound V-24] | 0.294 ± 0.06 µM |
| CCCCCOc1ccc(/C=C(\C#N)C(=O)O)cc1OC [Compound V-44] | 0.456 ± 0.042 µM |
| COc1cc(/C=C(\C#N)C(N)=O)ccc1OCC1CCCCC1 [Compound V-40] | 1.46 ± 0.119 µM |
| CCCCCCCCOc1ccc(/C=C(\C#N)C(=O)OCC)cc1[N+](=O)[O-] [Compound V-03] | 4.75 ± 0.489 µM |
| CCCCOc1ccc(/C=C(\C#N)C(N)=O)cc1OC [Compound V-37] | 5.41 ± 0.818 µM |
| CCCCOc1ccc(/C=C(\C#N)C(=O)OCC)cc1OC [Compound V-21] | 5.63 ± 0.987 µM |
| CCCCCCCCCOc1ccc(/C=C(\C#N)C(N)=O)cc1OC [Compound V-30] | 1.1 ± 0.212 µM |
| CCCCCCCOc1ccc(/C=C(\C#N)C(N)=O)cc1OC [Compound V-33] | 2.21 ± 0.45 µM |
| CCCCCCCOc1ccc(/C=C(\C#N)C(N)=O)cc1 [Compound V-11] | 0.376 ± 0.031 µM |
| CCCCCCCOc1c(Br)cc(/C=C(\C#N)C(N)=O)cc1OC [Compound V-16] | 1.3 ± 0.232 µM |
| CCCCCOc1ccc(/C=C(\C#N)C(=O)OCC)cc1OC [Compound V-41] | 4.14 ± 0.858 µM |
| CCCCCCCCCOc1ccc(/C=C(\C#N)C(=O)O)cc1OC [Compound V-31] | 0.356 ± 0.123 µM |
| CCOC(=O)/C(C#N)=C/c1ccc(OCC2CCCCC2)c(OC)c1 [Compound V-38] | 10.8 ± 1.04 µM |
